The values below are quoted from earlier work in US8158648B2, “Heteroaryl 11-beta hydroxysteroid dehydrogenase type I inhibitors” (priority 2005, dated 2012).

For the series, the system named is hepatic glucose production. The following applies: mildly overweight individuals with type 2 diabetes, seven days, versus placebo.

For the molecule `CC1(C)[C@@H](OC(=O)CCC(=O)O)CC[C@]2(C)[C@H]3C(=O)C=C4[C@@H]5C[C@@](C)(C(=O)O)CC[C@]5(C)CC[C@@]4(C)[C@]3(C)CC[C@@H]12` [carbenoxolone], the hepatic glucose production entry is recorded as “decrease in hepatic glucose production”.
